Laboratory results: patent EP3827825A1, “USE OF 3, 4-DIARYLPYRAZOLES AS ANTIBACTERIAL AGENTS” (Wageningen Universiteit, priority 2019, dated 2021)
≈ marks a conversion by molar mass, not a printed value. Where two headings read alike, the source gives them in different places.

Experiments:
E. faecium Van A = assay: Minimal inhibitory concentration (MIC), double-dilution in broth, OD600; type: cell-based, Enterococcus faecium; details: unit assumed
Protocol: (§1) In short, a stock solution of 5 mg/mL of HKIs in DMSO was made. This stock was diluted to 50 µg/mL in broth in a 96 well plate. Dilutions were made (factor 2) directly in the plate with a multi-channel pipet. Bacteria cultured in suspension overnight were then added to the plate (except negative control) and the plate was incubated for 24 hours. After 24 hours the OD600 was measured using a spectrophotometer. A positive control (with bacteria, without HKI) was also measured on each plate. The MICs were not determined in duplo/triplicate in the same experiment, however, the MICs of several HKIs were measured in different experiments and no major differences (max. 1x dilution) were found in the MICs between the experiments.
(§2) Bacterial strains used in this study for antibacterial susceptibility testing (Table S2) were propagated using standard microbiological procedures. Minimal inhibitory concentrations (MICs) were determined following a standard double-dilution method (42), 73. MICs were recorded as the lowest concentration of the compound where no visible growth was observed. After plating the dilutions around the MIC or growing them in fresh MH media, minimal bactericidal concentration (MBC) was recorded as the lowest concentration of the compound at which no colonies were formed or no growth was observed, respectively. For M. marinum, MICs were determined in Middlebrook 7H9 broth (Difco) and MICs were determined after 3 days incubation at 30 °C.
(§3) Grow the bacterial colonies to be tested from single colonies on an agar plate in LB broth or suitable bacterial growth medium overnight at 37°C. Prepare a 5 mg/mL stock solution of compounds to be tested in DMSO. One 96-well plate per bacterial strain was prepared. First, put 50 uL of medium to each well. Add 48 µL of medium to all wells in row A. Pipet 2 µL of antimicrobial master stock into the top well (row A). Beware, the antimicrobial concentration will be diluted 2x after adding the bacterial culture. Total volume in each well will be 100 µL. In A11, pipet 2 µL of DMSO. Make a serial dilution from row A to row H, pipetting 50 µL from the previous row into the new one. Mix well by pipetting up and down. Discard the last 50 µL so that there is 50 µl in each well In a clean, new plastic pipetting cup, dilute the overnight bacterial culture 100 times. Add 100 µL of bacterial overnight culture to 9900 µL of medium. Mix the suspension well. Once the serial dilutions are complete for all antimicrobial compounds, add 50 µL of diluted overnight bacterial culture to each well (except column 12). Mix by pipetting or put the plate on the shaker. Per 2 plates, close with parafilm around the edges and place in the incubator overnight. After overnight culturing, measure bacterial growth on the SpectraMax. The lowest concentration where no growth is observed is the MIC. To determine the MIB pipette 5 µL from each well of the 96 well plate where now growth was observed on to an LB agar plate, without antimicrobial. Put the plates in the incubator to grow overnight. The minimal concentration where no growth can be seen on the agar plate is the MBC.

P. multocida = assay: as above; type: cell-based, Pasteurella multocida; details: unit assumed
Protocol: as §1, §2, §3

NRK-52E = assay: Cell toxicity, Alamar blue assay, 24 hours exposure; type: cell-based; details: Rattus norvegicus
Protocol: Toxicity was primarily determined by measuring cytotoxicity with the Alamar blue assay. In short, cells (HEK293, NRK-52E and Caco-2) were plated in 96-well plates and cultured overnight. HKI compounds were diluted to concentrations ranging from 0.39 to 500 µg/mL in serum-free medium and added to the cells.
After exposure, cells were incubated for 24 hours. Experiments were mostly performed by single measurement. […] After 24 hours HKIs were removed from the cells and Alamar blue was added, incubated for 45 minutes and fluorescence was measured on a spectrophotometer. Alamar blue measures the conversion of blue, low fluorescent resazurin into high fluorescent pink resorufin. This conversion can only be made in viable mitochondria in viable cells and therefore this dye provides a measure for cytotoxicity.

M. marinum = assay: Minimal inhibitory concentration (MIC), Middlebrook 7H9 broth, 3 days at 30 °C; type: cell-based, Mycobacterium marinum; details: unit assumed
Protocol: as §1, §2, §3

E. coli JW5503 = type: cell-based, Escherichia coli; details: unit assumed
Protocol: as §1, §2, §3

S. suis = assay: Minimal inhibitory concentration (MIC), double-dilution in broth, OD600; type: cell-based, Streptococcus suis; details: unit assumed
Protocol: as §1, §2, §3

S. aureus Newman = assay: as above; type: cell-based, Staphylococcus aureus Newman; details: unit assumed
Protocol: as §1, with “plate.” for “plate. The MICs were not determined in duplo/triplicate in the same experiment, however, the MICs of several HKIs were measured in different experiments and no major differences (max. 1x dilution) were found in the MICs between the experiments.”
Bacterial strains used in this study for antibacterial susceptibility testing (Table S2) were propagated using standard microbiological procedures. Minimal inhibitory concentrations (MICs) were determined following a standard double-dilution method (42), 73. […] For M. marinum, MICs were determined in Middlebrook 7H9 broth (Difco) and MICs were determined after 3 days incubation at 30 °C.
as §3

[1] = read-out: IC50 NRK-52E (50 mg/mL stock)

Row | Structure (SMILES) | MIC E. faecium Van A (E. faecium Van A) [µg/mL] | MIC P. multocida (P. multocida) [µg/mL] | IC50 (NRK-52E; [1]) [µg/mL] | MIC M. marinum (M. marinum) [µg/mL] | MIC E. coli JW5503 (E. coli JW5503) [µg/mL] | MIC S. suis (S. suis) [µg/mL] | MIC S. aureus Newman (S. aureus Newman) [µg/mL] | IC50 (NRK-52E; read-out: IC50 NRK-52E (50 mg/mL stock), 50 mg/mL stock) [µg/mL]
1 | COc1ccc(-c2c(-c3ccc(OC)c(C)c3O)n[nH]c2C(F)(F)F)cc1 [Sep-1, 3-methoxy-6-[4-(4-methoxyphenyl)-5-(trifluoromethyl)-1∼{H}-pyrazol-3-yl]-2-methyl-phenol] | 50 (≈ 132 µM) | > 50 | 23.2 (≈ 61.3 µM) | > 50 | 6.25 (≈ 16.5 µM) | 50 (≈ 132 µM) | 25 (≈ 66.1 µM) | –
2 | CCOc1ccc(-c2n[nH]c(C(F)(F)F)c2-c2ccccc2)c(O)c1C [Sep-3, 3-ethoxy-2-methyl-6-[4-phenyl-5-(trifluoromethyl)-1∼{H}-pyrazol-3-yl]phenol] | 25 (≈ 69 µM) | > 50 | ~15.5 (≈ 42.8 µM) | > 50 | 6.25 (≈ 17.2 µM) | 25 (≈ 69 µM) | 12.5 (≈ 34.5 µM) | –
3 | COc1ccc(-c2c(-c3ccc(OCc4ccccc4)cc3O)n[nH]c2C(F)(F)F)cc1OC [Sep-28, 5-benzoxy-2-[4-(3,4-dimethoxyphenyl)-5-(trifluoromethyl)-1∼{H}-pyrazol-3-yl]phenol] | > 50 | > 50 | ~17.3 (≈ 36.7 µM) | > 50 | 25 (≈ 53.1 µM) | > 50 | 12.5 (≈ 26.6 µM) | –
4 | COc1ccc(-c2c(C(F)(F)F)n[nH]c2-c2ccc(OCc3ccc([N+](=O)[O-])cc3)cc2O)cc1 [Sep-6, 2-[4-(4-methoxyphenyl)-5-(trifluoromethyl)-1∼{H}-pyrazol-3-yl]-5-(4-nitrobenzyl)oxyphenol] | 6.25 (≈ 12.9 µM) | > 50 | 8.42 (≈ 17.3 µM) | 50 (≈ 103 µM) | 12.5 (≈ 25.8 µM) | 12.5 (≈ 25.8 µM) | 3.13 (≈ 6.45 µM) | –
5 | Cc1ccc(COc2ccc(-c3n[nH]c(C(F)(F)F)c3-c3cccc4ccccc34)c(O)c2)cc1 [Sep-4, 5-(4-methylbenzyl)oxy-2-[4-(1-naphthyl)-5-(trifluoromethyl)-1∼{H}-pyrazol-3-yl]phenol] | 25 (≈ 52.7 µM) | > 50 | 13.9 (≈ 29.2 µM) | 50 (≈ 105 µM) | > 50 | 25 (≈ 52.7 µM) | 3.13 (≈ 6.6 µM) | –
6 | O=[N+]([O-])c1ccc(COc2ccc(-c3[nH]nc(C(F)(F)F)c3-c3ccccc3)c(O)c2)cc1 [Sep-18, 5-(4-nitrobenzyl)oxy-2-[4-phenyl-5-(trifluoromethyl)-1∼{H}-pyrazol-3-yl]phenol] | 12.5 (≈ 27.4 µM) | > 50 | ~14.7 (≈ 32.3 µM) | > 50 | 12.5 (≈ 27.4 µM) | 12.5 (≈ 27.4 µM) | 6.25 (≈ 13.7 µM) | –
7 | COc1ccc(-c2c(-c3ccc(OC)cc3O)n[nH]c2C(F)(F)F)cc1 [May-8] | – | > 50 | 2.64 (≈ 7.25 µM) | 50 (≈ 137 µM) | 3.13 (≈ 8.59 µM) | 12.5 (≈ 34.3 µM) | 12.5 (≈ 34.3 µM) | –
8 | COc1ccccc1-c1c(-c2ccc(OCC(=O)NN)cc2O)n[nH]c1C(F)(F)F [Sep-26, 2-[3-hydroxy-4-[4-(2-methoxyphenyl)-5-(trifluoromethyl)-1∼{H}-pyrazol-3-yl]phenoxy]acetohy drazide] | 25 (≈ 59.2 µM) | > 50 | – | > 50 | – | > 50 | > 50 | 194 (≈ 461 µM)
9 | COc1ccc(-c2c(C(F)(F)F)n[nH]c2-c2ccc(O)cc2O)cc1OC [May-2, 4-[4-(3,4-dimethoxyphenyl)-5-(trifluoromethyl)-1∼{H}-pyrazol-3-yl]resorcinol] | 50 (≈ 131 µM) | > 50 | 13.9 (≈ 36.6 µM) | > 50 | – | 50 (≈ 131 µM) | 50 (≈ 131 µM) | –
10 | Oc1ccc(-c2[nH]nc(C(F)(F)F)c2-c2ccccc2)c(O)c1 [May-10, 4-[4-phenyl-5-(trifluoromethyl)-1∼{H}-pyrazol-3-yl]resorcinol] | 12.5 (≈ 39 µM) | 25 (≈ 78.1 µM) | ~3.61 (≈ 11.3 µM) | 50 (≈ 156 µM) | – | 12.5 (≈ 39 µM) | 6.25 (≈ 19.5 µM) | –
11 | COc1ccc(-c2n[nH]c(C)c2-c2ccc(Cl)cc2)c(O)c1 [Sep-21, 2-[4-(4-chlorophenyl)-5-methyl-1∼{H}-pyrazol-3-yl]-5-methoxy-phenol] | 50 (≈ 159 µM) | > 50 | 18.2 (≈ 57.9 µM) | 50 (≈ 159 µM) | – | > 50 | 50 (≈ 159 µM) | –
12 | COc1ccc(-c2c(-c3ccc(OCc4ccc(C)cc4)cc3O)n[nH]c2C(F)(F)F)cc1OC [Sep-27, 2-[4-(3,4-dimethoxyphenyl)-5-(trifluoromethyl)-1∼{H}-pyrazol-3-yl]-5-(4-methylbenzyl)oxy-phenol] | > 50 | > 50 | ~17.6 (≈ 36.3 µM) | 50 (≈ 103 µM) | > 50 | 50 (≈ 103 µM) | 3.13 (≈ 6.46 µM) | –
13 | COc1ccc(-c2[nH]nc(C(F)(F)F)c2-c2ccc(OC)c(OC)c2)c(O)c1 [May-5, 2-[4-(3,4-dimethoxyphenyl)-5-(trifluoromethyl)-1∼{H}-pyrazol-3-yl]-5-methoxy-phenol] | – | > 50 | 6.11 (≈ 15.5 µM) | > 50 | – | 50 (≈ 127 µM) | 25 (≈ 63.4 µM) | –
14 | C=C(C)COc1ccc(-c2[nH]nc(C(F)(F)F)c2-c2ccccc2OC)c(O)c1 [Sep-15, 2-[4-(2-methoxyphenyl)-5-(trifluoromethyl)-1∼{H}-pyrazol-3-yl]-5-(2-methylallyloxy)phenol] | 6.25 (≈ 15.5 µM) | > 50 | ~7.62 (≈ 18.8 µM) | 50 (≈ 124 µM) | 6.25 (≈ 15.5 µM) | 12.5 (≈ 30.9 µM) | 3.13 (≈ 7.74 µM) | –
15 | COc1ccccc1-c1c(-c2ccc(O)cc2O)n[nH]c1C(F)(F)F [May-13, 4-[4-(2-methoxyphenyl)-5-(trifluoromethyl)-1∼{H}-pyrazol-3-yl]resorcinol] | 50 (≈ 143 µM) | 50 (≈ 143 µM) | 8.06 (≈ 23 µM) | > 50 | – | 25 (≈ 71.4 µM) | 25 (≈ 71.4 µM) | –
16 | Cc1[nH]nc(-c2ccc(O)cc2O)c1-c1ccc(Br)cc1 [May-1, 4-[4-(4-bromophenyl)-5-methyl-1∼{H}-pyrazol-3-yl]resorcinol] | 12.5 (≈ 36.2 µM) | 12.5 (≈ 36.2 µM) | 5.95 (≈ 17.2 µM) | 50 (≈ 145 µM) | 3.13 (≈ 9.07 µM) | 6.25 (≈ 18.1 µM) | 12.5 (≈ 36.2 µM) | –
17 | COc1ccc(-c2c(C(F)(F)F)n[nH]c2-c2ccc(OCc3ccccc3F)cc2O)cc1 [Sep-8, 5-(2-fluorobenzyl)oxy-2-[4-(4-methoxyphenyl)-5-(trifluoromethyl)-1∼{H}-pyrazol-3-yl]phenol] | 6.25 (≈ 13.6 µM) | > 50 | ~14.5 (≈ 31.7 µM) | > 50 | 50 (≈ 109 µM) | 12.5 (≈ 27.3 µM) | 3.13 (≈ 6.83 µM) | –
